Among the data in ChEMBL document CHEMBL2074098, “Estradiol 17 beta-D-glucuronide is a high-affinity substrate for oatp organic anion transporter” (Am J Physiol, 1996) are Ki and Km values, retold here.

Sequences and labels used below:
T1: Solute carrier organic anion transporter family member 1A1 (Rattus norvegicus, UniProt P46720)
T1 sequence (P46720 whole entry): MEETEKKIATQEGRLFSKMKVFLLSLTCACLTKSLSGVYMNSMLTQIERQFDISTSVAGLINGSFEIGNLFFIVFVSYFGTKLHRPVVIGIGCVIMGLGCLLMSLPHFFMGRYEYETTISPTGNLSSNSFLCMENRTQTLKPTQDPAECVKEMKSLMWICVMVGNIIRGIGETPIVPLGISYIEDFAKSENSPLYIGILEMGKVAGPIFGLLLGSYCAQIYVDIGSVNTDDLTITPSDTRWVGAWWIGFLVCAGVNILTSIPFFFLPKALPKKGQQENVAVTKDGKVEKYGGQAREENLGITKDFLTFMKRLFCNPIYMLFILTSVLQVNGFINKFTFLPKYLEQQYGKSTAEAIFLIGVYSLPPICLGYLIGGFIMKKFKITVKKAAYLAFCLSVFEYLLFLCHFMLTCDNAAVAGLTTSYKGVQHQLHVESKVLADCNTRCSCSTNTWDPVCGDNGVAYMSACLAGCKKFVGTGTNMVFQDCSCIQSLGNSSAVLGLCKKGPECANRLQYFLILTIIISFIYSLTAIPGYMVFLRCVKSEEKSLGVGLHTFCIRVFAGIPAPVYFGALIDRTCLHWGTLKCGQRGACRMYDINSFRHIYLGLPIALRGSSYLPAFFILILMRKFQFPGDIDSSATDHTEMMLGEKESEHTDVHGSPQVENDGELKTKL

B1: Solute carrier organic anion transporter family member 1A1 (Rattus norvegicus) (protein)
chain: T1 sequence (P46720 whole entry)

The first data set addresses T1, Solute carrier organic anion transporter family member 1A1. Nature of the data set: TP_TRANSPORTER: inhibition of E217betaG uptake in Oatp1-expressing HeLa cells. In kind it is functional, cell-based.
Turning to `C[C@]12CC[C@H]3[C@@H](CCC4=CC(=O)CC[C@@]43C)[C@@H]1CC[C@@H]2O` [TESTOSTERONE], the Ki (usually the equilibrium dissociation constant of an inhibitor or competing ligand from its target) amounted to 5.4 µM. `C[C@]12CC[C@@H]3c4ccc(OS(=O)(=O)O)cc4CC[C@H]3[C@@H]1CCC2=O` [ESTRONE SULFURIC ACID] had a Ki of 1.3 µM. For `C[C@]12CC[C@@H]3c4ccc(O)cc4CC[C@H]3[C@@H]1CC[C@@]2(O)CC(=O)O`, the Ki is more than 200 µM. Same read-out and setting: to `C[C@]12CC[C@@H]3c4ccc(OS(=O)(=O)O)cc4CC[C@H]3[C@@H]1CC[C@@H]2O` belongs 1.1 µM; to `C[C@]12CC[C@@H]3c4ccc(O)cc4CC[C@H]3[C@@H]1CCC2=O` [ESTRONE], 15.7 µM; to `C[C@]12CC[C@@H]3c4ccc(O)cc4CC[C@H]3[C@@H]1C[C@@H](O)[C@@H]2O` [ESTRIOL], 9.8 µM. In turn, `C[C@]12CC[C@@H](OS(=O)(=O)O)C[C@@H]1CC[C@@H]1[C@@H]2CC[C@]2(C)C(=O)CC[C@@H]12` displayed a Ki of 2.4 µM. `C[C@]12CC[C@H]3[C@@H](CCC4=CC(=O)CC[C@@]43C)[C@@H]1CC[C@@H]2O[C@@H]1O[C@H](C(=O)O)[C@@H](O)[C@H](O)[C@H]1O`: the Ki worked out at 3.8 µM. For `C#C[C@]1(OS(=O)(=O)O)CC[C@H]2[C@@H]3CCc4cc(O)ccc4[C@H]3CC[C@@]21C`, the Ki was determined as 1.3 µM. Take `C[C@]12C[C@H](O)[C@H]3[C@@H](CCC4=CC(=O)CC[C@@]43C)[C@@H]1CC[C@@H]2C(=O)CO` [CORTICOSTERONE]: the affinity corresponds to a Ki of 5.3 µM.

In the case of `C[C@]12CC[C@@H]3c4ccc(O[C@@H]5O[C@H](C(=O)O)[C@@H](O)[C@H](O)[C@H]5O)cc4CC[C@H]3[C@@H]1CC[C@@H]2O`, the Ki came to 9.7 µM. Same read-out and setting: next, `C[C@]12CC[C@@H]3c4ccc(O)cc4CC[C@H]3[C@@H]1CC[C@@H]2O` [ESTRADIOL]: 4.7 µM; `CC(=O)O[C@@H]1CC[C@@]2(C)[C@@H](CC[C@@H]3[C@@H]2CC[C@]2(C)C(=O)CC[C@@H]32)C1` [ANDROSTERONE ACETATE]: 76.2 µM; `C[C@]12CC[C@@H](O)C[C@@H]1CC[C@@H]1[C@@H]2CC[C@]2(C)C(=O)CC[C@@H]12` [ANDROSTERONE]: 10.6 µM. `C[C@]12C[C@H](O)[C@H]3[C@@H](CCC4=CC(=O)CC[C@@]43C)[C@@H]1CC[C@@H]2C(=O)COS(=O)(=O)O`: the Ki worked out at 1.6 µM.

Substrate in another data set: C[C@]12CC[C@@H]3c4ccc(O)cc4CC[C@H]3[C@@H]1CC[C@@H]2O[C@@H]1O[C@H](C(=O)O)[C@@H](O)[C@H](O)[C@H]1O
The experiment in a line: TP_TRANSPORTER: uptake in Oatp1-expressing HeLa cells. In kind it is functional, cell-based.
With B1, the Km – broadly, the concentration of substrate that gives half-maximal velocity – is 3.2 µM.
